Results on 20 molecules are retold here after ChEMBL document CHEMBL5247614, “An overview of aryl hydrocarbon receptor ligands in the Last two decades (2002-2022): A medicinal chemistry perspective” (Eur J Med Chem, 2022).

SMILES strings stand for the structures.

The target in series [1] is T1, Aryl hydrocarbon receptor (Homo sapiens, UniProt P35869).
T1 sequence (P35869 whole entry): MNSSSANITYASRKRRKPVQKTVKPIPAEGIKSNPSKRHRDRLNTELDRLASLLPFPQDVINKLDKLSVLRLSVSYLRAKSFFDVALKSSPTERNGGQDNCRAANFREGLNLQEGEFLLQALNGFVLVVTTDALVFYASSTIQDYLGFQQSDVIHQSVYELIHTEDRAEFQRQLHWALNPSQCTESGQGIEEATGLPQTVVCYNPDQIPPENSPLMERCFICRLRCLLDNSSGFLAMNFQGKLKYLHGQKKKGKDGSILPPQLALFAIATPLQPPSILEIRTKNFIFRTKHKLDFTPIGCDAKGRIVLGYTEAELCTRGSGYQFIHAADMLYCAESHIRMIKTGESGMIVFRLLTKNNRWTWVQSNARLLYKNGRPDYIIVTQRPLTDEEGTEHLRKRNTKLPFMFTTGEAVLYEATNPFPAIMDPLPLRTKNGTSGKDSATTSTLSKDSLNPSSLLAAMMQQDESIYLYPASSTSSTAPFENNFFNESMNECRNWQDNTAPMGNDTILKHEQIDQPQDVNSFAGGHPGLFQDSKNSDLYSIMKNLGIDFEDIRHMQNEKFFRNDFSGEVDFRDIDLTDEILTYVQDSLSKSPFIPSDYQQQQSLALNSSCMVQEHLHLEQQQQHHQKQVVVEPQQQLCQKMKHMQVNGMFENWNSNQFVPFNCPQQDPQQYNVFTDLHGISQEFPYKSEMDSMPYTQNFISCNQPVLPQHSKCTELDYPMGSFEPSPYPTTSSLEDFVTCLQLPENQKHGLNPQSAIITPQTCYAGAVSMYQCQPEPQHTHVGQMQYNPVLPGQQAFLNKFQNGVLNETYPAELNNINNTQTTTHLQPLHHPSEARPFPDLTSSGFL
In words: Antagonist activity at AhR (unknown origin) assessed as inhibition of TCDD-induced luciferase activity.

The target of series [2] is T1, Aryl hydrocarbon receptor. The series is described as follows: Antagonist activity at AhR (unknown origin).
A further series deals with Saccharomyces cerevisiae. In words: Activation of transcription in yeast expressing AhR and ARNT. The series is classed as functional, organism-based.
Series [3] has as its target T1, Aryl hydrocarbon receptor. The series is described as follows: Activation of human AhR expressed in Saccharomyces cerevisiae YCM3 coexpressing ARNT incubated for 18 hrs.
Series [4] concerns the target T1, Aryl hydrocarbon receptor. The series is described as follows: Binding affinity to AhR (unknown origin) assessed as dissociation constant.
Series [5] has as its target T1, Aryl hydrocarbon receptor. The series is described as follows: Agonist activity at AhR (unknown origin).
Series [6] concerns the target T1, Aryl hydrocarbon receptor. In words: Modulator activity at AhR (unknown origin).
For series [7], the target named is T1, Aryl hydrocarbon receptor.
A short description of series [8]: Inhibition of kynurenic acid-induced CYP1A1 gene expression in human U-937 cells by qPCR analysis. The series is classed as ADME, cell-based. On the technique in general: In qPCR the cycle at which signal appears reflects the starting amount.
Series [9] addresses T1, Aryl hydrocarbon receptor. In words: Antagonist activity at AhR (unknown origin) expressed in human U87 cells assessed as inhibition of kynurenic acid-induced transactivation by Renilla/Firefly based dual-glo luciferase assay. The series is classed as cell-based.
Series [10] concerns CYP1A1. In words: Upregulation of CYP1A1 gene expression in human MDA-MB-468 cells transfected with XRE plasmid containing AhR responsive luciferase construct and renilla luciferase assessed as fold change in gene expression at 1 uM incubated for 24 hrs by dual-glo luciferase assay relative to control. The class given is ADME, cell-based. To be noted: read-out: FC.
The subject of series [11] is CYP1A1. The series is described as follows: Upregulation of CYP1A1 gene expression in human MDA-MB-468 cells transfected with XRE plasmid containing AhR responsive luciferase construct and renilla luciferase assessed as fold change in gene expression at 1 uM incubated for 1 hr by dual-glo luciferase assay relative to control. To be noted: read-out: FC. The class given is ADME, cell-based.

For series [12], the target named is T2, Aryl hydrocarbon receptor (Rattus norvegicus, UniProt P41738).
T2 sequence (P41738 whole entry): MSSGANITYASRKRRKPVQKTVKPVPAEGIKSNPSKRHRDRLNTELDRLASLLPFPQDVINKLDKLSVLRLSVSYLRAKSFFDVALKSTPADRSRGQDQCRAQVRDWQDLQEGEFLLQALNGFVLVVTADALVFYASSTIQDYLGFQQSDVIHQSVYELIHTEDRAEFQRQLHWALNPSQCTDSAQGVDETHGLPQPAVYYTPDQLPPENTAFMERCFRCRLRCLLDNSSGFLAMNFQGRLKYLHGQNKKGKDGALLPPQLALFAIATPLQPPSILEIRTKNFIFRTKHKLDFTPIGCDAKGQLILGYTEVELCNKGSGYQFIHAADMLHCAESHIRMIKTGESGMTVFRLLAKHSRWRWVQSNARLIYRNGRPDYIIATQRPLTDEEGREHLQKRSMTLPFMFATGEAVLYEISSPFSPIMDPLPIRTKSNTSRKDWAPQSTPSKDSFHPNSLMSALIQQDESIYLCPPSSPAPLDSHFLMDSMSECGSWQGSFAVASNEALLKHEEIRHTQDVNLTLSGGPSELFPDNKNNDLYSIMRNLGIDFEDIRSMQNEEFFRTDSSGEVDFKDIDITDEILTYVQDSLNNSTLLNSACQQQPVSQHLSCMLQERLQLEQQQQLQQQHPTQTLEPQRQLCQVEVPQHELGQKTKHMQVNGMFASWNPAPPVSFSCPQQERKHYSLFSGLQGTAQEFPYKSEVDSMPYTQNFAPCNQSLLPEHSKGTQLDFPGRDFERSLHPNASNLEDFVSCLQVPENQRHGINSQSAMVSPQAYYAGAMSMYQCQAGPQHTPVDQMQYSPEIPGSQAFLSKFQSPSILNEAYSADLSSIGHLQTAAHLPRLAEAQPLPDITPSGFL
In words: Inhibition of TCDD binding to rat liver cytosol AhR. The class given is subcellular.

In series [13] the target is T2, Aryl hydrocarbon receptor. In words: Antagonist activity at AhR in rat liver cytosol assessed as inhibition of TCDD-induced AhR/DNA complex formation by gel retardation assay. The class given is subcellular.
Series [14] concerns the target T1, Aryl hydrocarbon receptor. The series is described as follows: Antagonist activity at AhR (unknown origin) assessed as inhibition of receptor activation.

On to `Cc1ccccc1/N=N/c1ccc(NC(=O)c2ccnn2C)c(C)c1`, for which the IC50 – broadly, the concentration at which inhibition is half-maximal – in [1] was 30 nM.

In series [2], `O=C(NCC(O)C(F)(F)F)c1cc(-c2ccc(OC(F)(F)F)cc2)nn(-c2cccnc2)c1=O` (centres undefined) yielded an IC50 of 82.2 nM.

`Cc1[nH]c2ccccc2c1C` returned an IC50 in [2] of 11000 nM.

With `N[C@@H](Cc1c[nH]c2ccccc12)C(=O)O` [TRYPTOPHAN], in the series on Saccharomyces cerevisiae, the EC50 – broadly, the midpoint of the concentration-response curve – is 300000 nM.

Turning to `Clc1cc2c(cc1Cl)Oc1cc(Cl)c(Cl)cc1O2` [2,3,7,8-TETRACHLORODIBENZO-P-DIOXIN], the EC50 in series [3] is 9 nM.

Regarding `CCS(=O)(=O)c1ccc2oc(-c3ccc4ccccc4c3)nc2c1` [EZUTROMID], the Kd – broadly, the free concentration of one partner at which half of the binding sites on the other are occupied at equilibrium, for simple one-to-one binding – in series [4] was 50 nM.

In series [5], `O=c1c(Cc2c[nH]c3ccccc23)nccc2c1[nH]c1ccccc12` registered an EC50 of 12 nM.

Take `c1ccc2c(Cc3c[nH]c4ccccc34)c[nH]c2c1` [ARUNDINE]: the Kd in [4] turned out to be 90 nM. Besides, the EC50 in series [6] came out at 78000 nM.

`c1ccc2c(c1)Nc1nc3ccccc3c3ccnc-2c13`: in series [5], the EC50 came to 0.01 nM.

The molecule `NCCc1c[nH]c2ccccc12` [TRYPTAMINE] yielded an EC50 with Saccharomyces cerevisiae of 300000 nM.

In the series on Saccharomyces cerevisiae, `O=C(O)Cc1c[nH]c2ccccc12` [INDOLE-3-ACETIC ACID] came in with an EC50 of 300000 nM.

For the molecule `c1ccc2c(c1)[nH]c1cc3c(cc12)[nH]c1ccccc13`, the Kd in series [4] was determined as 0.19 nM.

Turning to `CC(C)n1cnc2c(NCCc3ccc(O)cc3)nc(-c3csc4ccccc34)nc21`, the IC50 in series [7] is 127 nM.

As for `CC(CO)NC(=O)c1cc(-c2ccc(Cl)cc2)nn(-c2cccc(F)c2)c1=O` (centres undefined), the IC50 in series [8] came out at 70700 nM; in series [9], 39.9 nM.

As to `c1ccc2[nH]ccc2c1` [INDOLE], the EC50 in the series on Saccharomyces cerevisiae came to 300000 nM.

Consider `CC(C)c1cnn2c(N[C@@H]3CCc4[nH]c5ccccc5c4C3)nc(-c3cncc(F)c3)nc12`, for which, in series [2], the IC50 was less than 500 nM.

Consider `Nc1ccccc1N1C(=O)c2cccc3cccc(c23)C1=O`, for which the fold induction at 24 h, 1 µM in the series with CYP1A1 [10] is 250. In addition, the fold induction at 1 h, 1 µM in the series with CYP1A1 [11] stood at 25.

For `COc1ccc(-c2coc3ccccc3c2=O)cc1N`, the values for the IC50 in [12] and in series [13] were 4000 nM and 1000 nM, respectively.

In series [2], `Cc1[nH]c2c(C)cccc2c1C` showed an IC50 of 12000 nM.

With `O=C1CC(C(=O)O)c2c1oc(=O)c1cc(O)c(O)c(O)c21` (centres undefined), the EC70 (commonly the point of the concentration-response curve where the effect stands at 70%) in series [14] worked out at 3900 nM.
